The structures appear in SMILES notation.

Chain of Purified hemoglobin (P69905 2-142 limits assumed): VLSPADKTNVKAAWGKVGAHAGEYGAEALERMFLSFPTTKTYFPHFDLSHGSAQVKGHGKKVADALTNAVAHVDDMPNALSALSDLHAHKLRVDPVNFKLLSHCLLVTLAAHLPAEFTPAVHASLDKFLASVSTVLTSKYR
Chain of Purified hemoglobin (P68871 2-147 partner limits assumed): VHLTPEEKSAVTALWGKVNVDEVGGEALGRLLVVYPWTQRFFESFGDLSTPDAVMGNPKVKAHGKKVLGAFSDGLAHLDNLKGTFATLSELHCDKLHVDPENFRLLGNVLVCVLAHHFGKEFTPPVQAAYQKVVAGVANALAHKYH

The target in the first assay is T1, hemoglobin (Homo sapiens, UniProt P69905).
T1 construct: from tissue; host or cells: whole blood (red blood cells)
T1 sequence (P69905 2-142 limits assumed): as the sequence (P69905 2-142 limits assumed) above
T1 sequence (P68871 2-147 partner limits assumed): as the sequence (P68871 2-147 partner limits assumed) above
The assay can be described thus: Whole blood assay: oxygen equilibrium curves (Hemox Analyzer), change in p50. The assay is classed as cell-based. The note with it: whole blood 20% Hct (1 mM Hb), compound 1 mM, equimolar to hemoglobin, 1 h at 37° C. As for the experimental part:
Oxygen equilibrium curves (OECs) were collected using a TCS Hemox Analyzer (TCS Scientific Company, New Hope, Pa., USA) to measure changes in the binding affinity of 02 to Hb. Whole blood was incubated for 1 h at 37° C. with the indicated compounds in an equimolar ratio of hemoglobin to compound and diluted into TES (2-[[1,3-dihydroxy-2-(hydroxymethyl)propan-2-yl]amino]ethanesulfonic acid)/saline buffer prior to measurements. For example, for whole blood at 20% hematocrit [Hct], which corresponds to 1 mM Hb, a compound concentration of 1 mM was used (for example, for compounds 1-53), and the incubated sample diluted 50- to 100-fold. The concentration for compound 54 was 1.7 mM and in equimolar ratio to hemoglobin. The diluted samples were then oxygenated with compressed air within the Hemox Analyzer, and the OECs were collected during deoxygenation as previously described (Guarnone et al., Haematologica, 1995, 80, 426-430). p50 (partial pressure of 02 at which Hb is 50% saturated with 02) values were obtained using a non-linear regression analysis. Percentage change in p50 [Δp50(%)] was calculated as follows: Δp50(%)=[(p50 of control)−p50 with compound)/p50 control]×100.
For the compound `COc1ccc(C=O)cc1-c1ncccc1COc1cccc(O)c1C=O` [Compound 6, 3-{3-[(2-formyl-3-hydroxyphenoxy)methyl]pyridin-2-yl}-4-methoxybenzaldehyde], the “Delta-p50 (%)” value worked out at 16.7%.

Consider `COc1ncc(C=O)cc1-c1ncccc1COc1cccc(O)c1C=O` [Compound 7, 3-[(2-formyl-3-hydroxyphenoxy)methyl]-2′-methoxy-[2,3′-bipyridine]-5′-carbaldehyde], for which the “Delta-p50 (%)” value is 32.5%. As to `O=Cc1cccc(-c2ncccc2COc2cccc(O)c2C=O)c1` [Compound 8, 3-{3-[(2-formyl-3-hydroxyphenoxy)methyl]pyridin-2-yl}benzaldehyde], the “Delta-p50 (%)” value is given as 44.8%. Regarding `O=Cc1cc(-c2ncccc2COc2cccc(O)c2C=O)co1` [Compound 11, 4-{3-[(2-formyl-3-hydroxyphenoxy)methyl]pyridin-2-yl}furan-2-carbaldehyde], the “Delta-p50 (%)” value is 17.2%. On to `O=Cc1c(O)cccc1C(=O)N1CCCC[C@H]1COc1ccc2c(c1C=O)CCO2` [Compound 44, 5-{[(2S)-1-(2-formyl-3-hydroxybenzoyl)piperidin-2-yl]methoxy}-2,3-dihydro-1-benzofuran-4-carbaldehyde], for which the “Delta-p50 (%)” value is reported as 34.2%. On to `CCOc1ccc(-c2ncccc2COc2cccc(O)c2C=O)nc1C=O` [Compound 45, 5-ethoxy-3′-[(2-formyl-3-hydroxyphenoxy)methyl]-[2,2′-bipyridine]-6-carbaldehyde], for which the “Delta-p50 (%)” value is on record as 55.7%.

`Cc1cccc(C(=O)N2CCCC[C@@H]2COc2cccc(O)c2C=O)c1C=O` [Compound 46, 2-[(2R)-2-[(2-formyl-3-hydroxyphenoxy)methyl]piperidine-1-carbonyl]-6-methylbenzaldehyde]: the “Delta-p50 (%)” value stood at 69%. For `O=Cc1c(O)cccc1OC[C@@H]1CCCCN1C(=O)c1cccc(F)c1C=O` [Compound 47, 2-fluoro-6-[(2S)-2-[(2-formyl-3-hydroxyphenoxy)methyl]piperidine-1-carbonyl]benzaldehyde], the “Delta-p50 (%)” value was determined as 70%.

As to `COc1cccc(C(=O)N2CCOC[C@H]2COc2cccc(O)c2C=O)c1C=O` [Compound 48, 2-[(3S)-3-[(2-formyl-3-hydroxyphenoxy)methyl]morpholine-4-carbonyl]-6-methoxybenzaldehyde], the “Delta-p50 (%)” value is given as 70.3%. For the compound `COc1cccc(C(=O)N2CCCC[C@@H]2COc2cccc(O)c2C=O)c1C=O` [Compound 49, 2-[(2R)-2-[(2-formyl-3-hydroxyphenoxy)methyl]piperidine-1-carbonyl]-6-methoxybenzaldehyde], the “Delta-p50 (%)” value was determined as 59%.

For the compound `CCOc1cccc(C(=O)N2CCCC[C@@H]2COc2cccc(O)c2C=O)c1C=O` [Compound 50, 2-ethoxy-6-[(2R)-2-[(2-formyl-3-hydroxyphenoxy)methyl]piperidine-1-carbonyl]benzaldehyde], the “Delta-p50 (%)” value is recorded as 45.3%.

Regarding `O=Cc1c(O)cccc1OC[C@@H]1CCCCN1C(=O)c1cccc(Cl)c1C=O` [Compound 51, 2-chloro-6-[(2S)-2-[(2-formyl-3-hydroxyphenoxy)methyl]piperidine-1-carbonyl]benzaldehyde], the “Delta-p50 (%)” value came to 65.5%. For `CCOc1cccc(C(=O)N2CCC[C@H]2COc2cccc(O)c2C=O)c1C=O` [Compound 52, 2-ethoxy-6-[(2S)-2-[(2-formyl-3-hydroxyphenoxy)methyl]pyrrolidine-1-carbonyl]benzaldehyde], the “Delta-p50 (%)” value is given as 75.5%. As to `O=Cc1cnccc1C(=O)N1CCCC[C@H]1COc1cccc(O)c1C=O` [Compound 53, 4-[(2S)-2-[(2-formyl-3-hydroxyphenoxy)methyl]piperidine-1-carbonyl]pyridine-3-carbaldehyde], the “Delta-p50 (%)” value amounted to 71.9%.

Still in this assay, the particulars now being: whole blood, compound 1.7 mM, equimolar to hemoglobin, 1 h at 37° C.
In the case of `CC1(COc2cccc(O)c2C=O)COCCN1C(=O)c1cccc(O)c1C=O` (stereo not drawn) [Compound 54, 2-((4-(2-formyl-3-hydroxybenzoyl)-3-methylmorpholin-3-yl)methoxy)-6-hydroxybenzaldehyde], the “Delta-p50 (%)” value turned out to be 72.6%.

Another assay addresses Purified hemoglobin (Homo sapiens, UniProt P69905). The assay can be described thus: Hemoglobin assay: oxygen equilibrium curves with purified hemoglobin, change in p50. The assay is classed as biochemical. The note with it: purified hemoglobin 25 μM, compound 25 μM, 1 h at 37° C. As for the experimental part: Hemoglobin assay: Oxygen equilibrium curves (OECs) were collected as described above. Purified hemoglobin (25 μM) was incubated for 1 h at 37° C. with the indicated compounds (30 μM for compounds 6, 7, 8, and 11; 25 μM for compounds 55 to 67 (Enantiomer 1 and Enantiomer 2)) in 5 ml of TES (2-[[1,3-dihydroxy-2-(hydroxymethyl)propan-2-yl]amino]ethanesulfonic acid)/saline buffer prior to measurements. The samples were then oxygenated with compressed air within the Hemox Analyzer and the OECs were collected during deoxygenation as previously described. p50 values were obtained using a non-linear regression analysis, and Δp50(%) was calculated as described above.
For `O=Cc1c(O)cccc1CN1C(=O)CCCC1COc1cccc(O)c1C=O` (racemic) [Compound 66, 2-((1-(2-formyl-3-hydroxybenzyl)-6-oxopiperidin-2-yl)methoxy)-6-hydroxybenzaldehyde], the “Delta-p50 (%)” value came to 71%.

With `O=Cc1c(O)cccc1OCC1CSCCN1C(=O)c1cccc(O)c1C=O` (single isomer, unassigned) [67 (Enantiomer 1), 2-((4-(2-formyl-3-hydroxybenozyl)thiomorpholin-3-yl)methoxy)-6-hydroxybenzaldehyde], the “Delta-p50 (%)” value was 67.2%. Consider `O=Cc1c(O)cccc1OCC1CSCCN1C(=O)c1cccc(O)c1C=O` (single isomer, unassigned) [67 (Enantiomer 2), 2-((4-(2-formyl-3-hydroxybenzoyl)thiomorpholin-3-yl)methoxy)-6-hydroxybenzaldehyde], for which the “Delta-p50 (%)” value is 69.3%. With `CC1(C)CN(C(=O)c2cccc(O)c2C=O)C(COc2cccc(O)c2C=O)CO1` (stereo in doubt) [Compound 64], the “Delta-p50 (%)” value amounted to 67%. Still for that read-out and setting: to `O=Cc1ccccc1OC[C@@H]1CCCCN1C(=O)c1cccc(O)c1C=O` [Compound 55, (S)-2-(2-((2-formylphenoxy)methyl)piperidine-1-carbonyl)-6-hydroxybenzaldehyde] belongs 71%; to `O=Cc1ccccc1OC[C@@H]1COCCN1C(=O)c1cccc(O)c1C=O` [Compound 56, (S)-2-(3-((2-formylphenoxy)methyl)morpholine-4-carbonyl)-6-hydroxybenzaldehyde], 70%; to `COc1ccc(C(=O)N2CCCC[C@H]2COc2cccc(O)c2C=O)c(C=O)c1O` [Compound 57, (S)-6-(2-((2-formyl-3-hydroxyphenoxy)methyl)piperidine-1-carbonyl)-2-hydroxy-3-methoxybenzaldehyde], 71%.

Take `O=Cc1cccc(C(=O)N2CCC[C@@H](COc3cccc(O)c3C=O)C2)c1O` [Compound 58]: the “Delta-p50 (%)” value was 71%. Take `O=Cc1c(O)cccc1OC[C@H]1CN(C(=O)c2cccc(O)c2C=O)CCO1` [Compound 59, 2-[[(2R)-4-(2-formyl-3-hydroxybenzoyl)morpholin-2-yl]methoxy]-6-hydroxybenzaldehyde]: the “Delta-p50 (%)” value was determined as 71%.

As for `CC1CN(C(=O)c2cccc(O)c2C=O)C(COc2cccc(O)c2C=O)CO1` (stereo not drawn) [Compound 60, 2-((4-(2-formyl-3-hydroxybenzoyl)-6-methylmorpholin-3-yl)methoxy)-6-hydroxybenzaldehyde], the “Delta-p50 (%)” value worked out at 67%. On to `O=Cc1cc(C(=O)N2CCC[C@@H](COc3cccc(O)c3C=O)C2)ccc1O` [Compound 61, 2-[[(3R)-1-(3-formyl-4-hydroxybenzoyl)piperidin-3-yl]methoxy]-6-hydroxybenzaldehyde], for which the “Delta-p50 (%)” value is listed as 71%.

`O=Cc1c(O)cccc1OC[C@H]1CN(C(=O)c2cccc(O)c2C=O)CCO1` [Compound 62, 2-[[(2R)-4-(2-formyl-3-hydroxybenzoyl)morpholin-2-yl]methoxy]-6-hydroxybenzaldehyde]: the “Delta-p50 (%)” value turned out to be 69%. With `O=Cc1c(O)cccc1OC[C@@H]1CCCN(C(=O)Oc2cccc(O)c2C=O)C1` [Compound 63, 2-formyl-3-hydroxyphenyl (3R)-3-(2-formyl-3-hydroxyphenoxymethyl)piperidine-1-carboxylate], the “Delta-p50 (%)” value turned out to be 70%.

Regarding `CC1(C)C[C@@H](COc2cccc(O)c2C=O)N(C(=O)c2cccc(O)c2C=O)C1` [Compound 65, 2-[[(2S)-1-(2-formyl-3-hydroxybenzoyl)-4,4-dimethylpyrrolidin-2-yl]methoxy]-6-hydroxybenzaldehyde], the “Delta-p50 (%)” value is given as 69%.

Staying with this assay, now noted: purified hemoglobin 25 μM, compound 30 μM, 1 h at 37° C.
In the case of `COc1ccc(C=O)cc1-c1ncccc1COc1cccc(O)c1C=O` [Compound 6, 3-{3-[(2-formyl-3-hydroxyphenoxy)methyl]pyridin-2-yl}-4-methoxybenzaldehyde], the “Delta-p50 (%)” value was determined as 60.66%. The same measure, in the same setting: then `COc1ncc(C=O)cc1-c1ncccc1COc1cccc(O)c1C=O` [Compound 7, 3-[(2-formyl-3-hydroxyphenoxy)methyl]-2′-methoxy-[2,3′-bipyridine]-5′-carbaldehyde], with 58.29%.

Take `O=Cc1cccc(-c2ncccc2COc2cccc(O)c2C=O)c1` [Compound 8, 3-{3-[(2-formyl-3-hydroxyphenoxy)methyl]pyridin-2-yl}benzaldehyde]: the “Delta-p50 (%)” value is given as 57.3%. Consider `O=Cc1cc(-c2ncccc2COc2cccc(O)c2C=O)co1` [Compound 11, 4-{3-[(2-formyl-3-hydroxyphenoxy)methyl]pyridin-2-yl}furan-2-carbaldehyde], for which the “Delta-p50 (%)” value worked out at 14.12%.

The values above are taken from patent US11014884B2 (Global Blood Therapeutics, Inc., priority 2018, dated 2021).
